Data on one compound can be found in publication PMC3105069, “Nicotinic Acid Receptor Abnormalities in Human Skin Cancer: Implications for a Role in Epidermal Differentiation” (PLoS ONE, 2011).

Structures are written as SMILES. pEC50: −log10 of the molar value.

The target in this test is T1, GPR109B (Homo sapiens, UniProt P49019).
T1 construct: gene HCAR3
T1 sequence (P49019 whole entry): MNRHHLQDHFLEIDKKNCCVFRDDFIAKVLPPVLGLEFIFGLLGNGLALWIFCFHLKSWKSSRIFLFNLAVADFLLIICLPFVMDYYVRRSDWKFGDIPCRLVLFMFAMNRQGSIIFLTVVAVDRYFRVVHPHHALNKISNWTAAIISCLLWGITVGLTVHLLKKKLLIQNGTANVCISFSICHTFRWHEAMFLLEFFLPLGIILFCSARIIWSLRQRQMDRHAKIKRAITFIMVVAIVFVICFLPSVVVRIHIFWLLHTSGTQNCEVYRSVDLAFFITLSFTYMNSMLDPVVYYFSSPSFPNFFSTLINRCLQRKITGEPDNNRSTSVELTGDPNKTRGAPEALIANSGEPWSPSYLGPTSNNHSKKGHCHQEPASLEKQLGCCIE

The compound `O=C(O)c1cccnc1` [nicotinic acid] gave a negative logarithm of the EC50 (pEC50) of 4.60.
